Assay results: US9402919B2, “Vectors conditionally expressing protein” (Intrexon Corporation, priority 2011, dated 2016)

Assays:
[1] = test system: Lewis lung carcinoma (LLC); assay: Syngeneic Lewis lung carcinoma model: tumor growth after i.t. Ad-RTS vectors with oral AL; assay type: in vivo, mice; conditions: oral AL alone in feed at 1000 ppm (~225 mg/kg/day)
Excerpt: Current cancer immunotherapies have provided limited success in the clinic and innovative strategies are required to further enhance the effectiveness of an anti-tumor immune response. This study assessed anti-tumor activity utilizing intratumoral (i.t.) administration of adenovirus (Ad) with the novel Rheoswitch Therapeutic System® (RTS®), an inducible promoter system, for regulated expression of murine IL-12 or IFNa. Oral administration of a small molecule activator ligand (AL), INXN-1001, regulates the expression of IL-12 in Ad-RTS-mIL-12 and IFNa in Ad-RTS-mIFNa. The regulated expression and therapeutic benefit of IL-12 and IFNa from i.t. administered Ad-RTS-mIL-12 and Ad-RTS-mIFNa, either alone or in combination, was examined in syngeneic Lewis lung carcinoma (LLC) and syngeneic mammary carcinoma (4T1) models.
In contrast, i.t. injection with 10^10 vp Ad-RTS-mIL-12 or Ad-RTS-mIFNa and daily oral AL led to significant tumor growth inhibition by day 25 (72 and 71%, respectively; p<0.05). […] Future studies will investigate the mechanism by which both IL-12 and IFNα exert their anti-tumor effect in the above tumor models.
LLC and 4T1 cells were transiently transduced with Ad-RTS-murine IL12 or Ad-RTS-murine IFNa at a MOI of 100. […] Supernatants were collected at 48 h and cytokine levels assessed by ELISA. n=3, mean±s.d. […]

murine melanoma, B16F0 = assay: Bilateral B16F0 melanoma model: tumor volume after intratumoral Ad-RTS-mIL12; assay type: in vivo, C57BL/6 mice; conditions: day 21 post cell inoculation; activator ligand chow 1000 mg/kg alone, no vector
Excerpt: We investigated if the treatment of a local tumor with Ad-RTS-mIL12 (resulting in local tumor growth regression) would also lead to anti-tumor activity in the distant tumor. Toward this goal, we developed melanoma tumors on both flank regions of immunocompetent mice (C57BL/6) and treated the tumor on the right flank with Ad-RTS-mIL12 in the presence of activator ligand.
Six- to eight-week-old female C57B1/6 mice were purchased from Harlan (USA). Animal care and experimental procedures were performed according to Intrexon's Institutional Animal Care and Use Committee guidelines.
The murine melanoma (B16F0) cells were purchased from ATCC (Manassas, Va.). B16F0 cells were grown in Dulbecco's modified Eagle's medium (ATCC, Manassas, Va.), The DMEM was supplemented with heat-inactivated fetal calf serum (FCS) 10% v/v, 2-mM L-glutamine (Atlanta Biologicals, Inc, Lawrenceville, Ga.), 100 IU/ml […], and 100 μg/ml streptomycin. The cells were grown at 37° C. in 5% CO2. All cell lines were routinely tested and found to be free of mycoplasma. […]
Vector was administered intratumorally on Day 12 and Day 19 post tumor cell inoculation. Tumor size and body weight of each mouse were monitored three times a week until the end of the study. […]
The tumor volumes were calculated using the formula, L×W^2/2. […]

[2] = Plasma HuEPO expression as a function of activator ligand dose in chow after IM AAV-HuEPO (0034A); assay type: in vivo
Method: Animals were anesthetized, their quadriceps were visualized and the injection site sterilized. The mice were injected with vector using a 0.5 ml insulin syringe and a 29.5 gauge needle. Each animal was injected with total of 10^11 virus genomes in a 100 μl volume. After the procedure, the animals were placed in their cage and observed for normal ambulation.
Plasma samples were assayed for the presence of human erythropoietin using Enzyme Linked Immunosorbent Assay (ELISA) (StemCell Technologies, #01630).
Animals were bled for baseline HCT levels, followed by IM administration of 10^11 AAV-HuEPO viral genomes per animal (0034A). Animals received activator ligand-containing chow, with activator ligand concentrations 1000 mg/kg (18-1000), 250 mg/kg (18-250), 100 mg/kg (18-100), 50 mg/kg (18-50), or 0 mg/kg (18-0) starting on the day of AAV administration. Control animals received either vector administration and normal chow (no activator ligand, 18-0), or they received vehicle-alone IM administration (saline) with (18-1000) or without (18-0) activator ligand. HCT and HuEPO expression levels were measured in all groups every 7 days.

SMILES	inhibition of tumor growth compared to control, untreated tumors [1]	average tumor volume, right flank tumor (murine melanoma, B16F0) [mm^3]	plasma HuEPO expression ([2]; ligand chow 50 mg/kg (18-50), 14 and 21 days, 0034A IM)	plasma HuEPO expression ([2]; ligand chow 50 mg/kg (18-50), 7 days, 0034A 10^11 viral genomes IM, limit of sensitivity of the assay) [mU/ml]	plasma HuEPO expression ([2]; ligand chow 100 mg/kg (18-100), 7 days, 0034A IM)
CCC[C@@H](N(NC(=O)c1cccc(OC)c1CC)C(=O)c1cc(C)cc(C)c1)C(C)(C)C [AL]	did not result in significant inhibition of tumor growth	–	–	–	–
CCC[C@@H](N(NC(=O)c1cccc(OC)c1CC)C(=O)c1cc(C)cc(C)c1)C(C)(C)C [activator ligand, (R)-3,5-Dimethyl-benzoic acid N-(1-tert-butyl-butyl)-N′-(2-ethyl-3-methoxy-benzoyl)-hydrazide]	–	924±80	detectable	≤ 8	lower HuEPO expression
